Laboratory results: patent publication US8575320B2, “Compositions and methods for separating, characterizing and administering soluble selenoglycoproteins” (Alltech, Inc., priority 2010, dated 2013)

System: gene expression in chicken breast muscle tissue
Experiment: Microarray gene expression profile in breast muscle of broilers fed different selenium sources
Type: in vivo
Settings: P<0.05, FC>1.2 vs Control, 0.3 ppm Se diet, 18 days
Protocol: Breast muscle tissue from chickens referenced in Example 3 was used to assess similarities and differences in gene expression profiles elicited by the following dietary treatments: Treatment 1-basal (Control); Treatment 2-Control+0.3 ppm sodium-selenite (SS); Treatment 3-Control+0.3 ppm SEL-PLEX; Treatment 6-0.3 ppm SGP fraction extracted from SEL-PLEX (SP) at pH 4.0. […] As such, experiments were conducted during development of embodiments of the invention in order to determine if animals receiving SGP fraction pH 4.0 experienced similar in vivo effects (e.g., gene expression changes) observed in SP fed animals, or whether significant, measurable differences existed.
At 18-days of age, five chickens from each treatment group (described above and in Tables 3 and 4) were randomly selected and euthanized by argon asphyxiation, followed by cervical dislocation. Samples of breast muscle tissue (1 gram) were rapidly removed and flash frozen in liquid nitrogen. Samples were stored at −80° C. until analyzed.
Total RNA was isolated from frozen tissue using TRIZOL reagent (INVITROGEN, Carlsbad, Calif.) according to the manufacturer's protocol and purified using a RNEASY kit (QIAGEN, Valencia, Calif.). Total RNA was quantified by absorbance at 260 nm and integrity was confirmed by agarose gel electrophoresis and ethidium bromide staining of the 28S and 18S bands. […]

O=[Se](O)O [SS, sodium selenite]
number of genes significantly changed: 283
